For this assay, the target named is T1, PRKACG (PRKAC gamma) (Homo sapiens, UniProt P22612).
T1 construct: purchased Thermo Fisher Scientific (Life Technologies) SelectScreen
As to the kind of experiment: SelectScreen LanthaScreen. It is filed as binding. To be noted: read-out: % displacement. In short, it runs like this: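 NU5455 was profiled across the SelectScreen Broad panel of kinase activity and binding assays. Z'LYTE reactions such as CSF1R ran at apparent Km ATP, while the Adapta CAMK1 assay used ATP listed as 10. Values are given as percent.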

Inhibition data for 1 molecule are collected here from paper PMC6934184, “Selective DNA-PKcs inhibition extends the therapeutic index of localized radiotherapy and chemotherapy” (The Journal of Clinical Investigation, 2019).

The structures appear in SMILES notation.

T1 sequence (P22612 whole entry): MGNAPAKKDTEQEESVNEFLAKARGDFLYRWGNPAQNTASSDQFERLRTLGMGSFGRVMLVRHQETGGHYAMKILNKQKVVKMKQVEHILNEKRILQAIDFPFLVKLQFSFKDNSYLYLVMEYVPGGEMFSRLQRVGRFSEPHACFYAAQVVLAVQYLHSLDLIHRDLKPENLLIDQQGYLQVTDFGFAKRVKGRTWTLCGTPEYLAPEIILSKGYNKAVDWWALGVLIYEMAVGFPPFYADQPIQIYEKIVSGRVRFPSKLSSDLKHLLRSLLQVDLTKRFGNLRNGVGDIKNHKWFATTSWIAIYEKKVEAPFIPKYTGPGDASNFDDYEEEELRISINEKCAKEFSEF

As to `CN(C(=O)CN1CCOCC1)c1ccc2sc3c(-c4cccc5c(=O)cc(N6CC7CCC(C6)O7)oc45)cccc3c2c1` [NU5455], the inhibition at 1 µM was -0.2%.
